Measurements: patent publication US20170157155A1, “METHOD OF TREATMENT OF NASOPHARYNGEAL CANCER” (Millennium Pharmaceuticals, Inc., priority 2012, published 2017)

Legend:
[1] = system: hematological and solid tumor xenograft models; conditions: range of hematological and solid tumor xenograft models; cited from earlier work
nasopharyngeal cancer = test: Clinical response of nasopharyngeal cancer patients given the compound of formula (III-A) IV twice weekly; type: in vivo, human; conditions: for clinical response: IV injection days 1, 4, 8 and 11 of a 21-day cycle
Protocol: (1) Tissue Microarray (obtained from US Biomax, Inc.) of primary nasopharyngeal cancer (n=35) (2) Tissue Microarray of metastatic nasopharyngeal cancer (obtained from US Biomax, Inc.) (n=15) (3) Tissue Microarray of other histologies of head and neck cancers (obtained from US Biomax, Inc.) (n=68) (4) Archival primary tumor biopsy samples of patients with head and neck squamous cell cancers (n=14). All samples were obtained under the appropriate informed consent. The patients were administered the compound of formula (III-A) on a twice-weekly schedule (days 1, 4, 8 and 11 of a 21-day cycle) as an IV injection. Of the primary tumor samples in (4), there were three patients with nasopharyngeal cancer.

[2] = on exposure to aqueous solution or plasma; cited from earlier work
[3] = system: relapsed or refractory mantle cell lymphoma; conditions: international multi-center Phase II study; cited from earlier work

Structure (SMILES)	anti-tumor activity [1]	clinical response (nasopharyngeal cancer; Patient 1, metastatic nasopharyngeal cancer of a squamous cell type, tumor NFκB p65 H-score 300)	Responder/Non-responder (nasopharyngeal cancer; Patient 1, H-score 300)	clinical response (nasopharyngeal cancer; Patient 2, nasopharyngeal cancer, tumor NFκB p65 H-score 200)	Responder/Non-responder (nasopharyngeal cancer; Patient 2, H-score 200)	clinical response (nasopharyngeal cancer; Patient 3, nasopharyngeal cancer, tumor NFκB p65 H-score 160)	Responder/Non-responder (nasopharyngeal cancer; Patient 3, H-score 160)	hydrolysis to the active form MLN2238 [2]	activity in patients [3]
CC(C)C[C@H](NC(=O)CNC(=O)c1cc(Cl)ccc1Cl)B1OC(=O)C(CC(=O)O)(CC(=O)O)O1 [formula (III-A), 2,2′-{2-[(1R)-1-({[(2,5-dichlorobenzoyl)amino]acetyl}amino)-3-methylbutyl]-5-oxo-1,3,2-dioxaborolane-4,4-diyl}diacetic acid]	demonstrated anti-tumor activity	durable partial response	Responder	disease progressed within 4 cycles	Non-responder	progressive disease	Non-responder	rapidly hydrolyzes	–
CC(C)C[C@H](NC(=O)[C@H](Cc1ccccc1)NC(=O)c1cnccn1)B(O)O [bortezomib, N-2-pyrazinecarbonyl-L-phenylalanine-L-leucineboronic acid]	–	–	–	–	–	–	–	–	confirming the activity
